The data set is described as follows: in vitro. The settings on record: human, hek293t cells.
The term viability denotes a read-out of living cells in per cent, often relative to untreated cells. As to `NC(=O)c1coc(C(=O)CCl)c1` [10-C05, 5-(2-chloroacetyl)furan-3-carboxamide], the viability at 48 h, 25 µM stood at 60.9%.
Under `O=C(CCl)N[C@H](CO)Cc1ccccc1` [6-G20, 2-chloro-N-[(2S)-1-hydroxy-3-phenylpropan-2-yl]acetamide] stands 81.9%; under `C=CC(=O)N1CCCC1c1nc(N(C)C)no1` (stereo not drawn) [2-C21, 1-{2-[3-(dimethylamino)-1,2,4-oxadiazol-5-yl]pyrrolidin-1-yl}prop-2-en-1-one], 191%.
Turning to `Cc1ccc(N2CCN(C(=O)C(C)Cl)CC2=O)o1` (stereo not drawn) [7-A16, 4-(2-chloropropanoyl)-1-(5-methylfuran-2-yl)piperazin-2-one], the viability at 48 h, 25 µM stood at 74.7%.
On to `CC(Cl)C(=O)NCCc1ccnn1C` (stereo not drawn) [7-I21, 2-chloro-N-[2-(1-methyl-1H-pyrazol-5-yl)ethyl]propanamide], for which the viability at 48 h, 25 µM was determined as 92.3%.
On to `Cc1cccc2nc(C3CCN(C(=O)C(C)Cl)CC3)oc12` (stereo not drawn) [7-M12, 2-chloro-1-[4-(7-methyl-1,3-benzoxazol-2-yl)piperidin-1-yl]propan-1-one], for which the viability at 48 h, 25 µM is 79.6%.
On to `O=C(CCl)N(CC1CCCO1)C1CCS(=O)(=O)C1` (stereo not drawn) [5-N16, 2-chloro-N-(1,1-dioxo-1lambda6-thiolan-3-yl)-N-[(oxolan-2-yl)methyl]acetamide], for which the viability at 48 h, 25 µM was 2.2%.
Take `CC(Cl)C(=O)Nc1ccccc1F` (stereo not drawn) [5-L10, 2-chloro-N-(2-fluorophenyl)propanamide]: the viability at 48 h, 25 µM is 99.2%.
As to `CC(Cl)C(=O)NC1CCCN(S(=O)(=O)N2CCOCC2)C1` (stereo not drawn) [6-L03, 2-chloro-N-[1-(morpholine-4-sulfonyl)piperidin-3-yl]propanamide], the viability at 48 h, 25 µM stood at 111%.
As for `O=C(CCl)Nc1ccccc1SCc1ccccc1` [4-J05, N-[2-(benzylsulfanyl)phenyl]-2-chloroacetamide], the viability at 48 h, 25 µM turned out to be 0.437%.
Take `C=CC(=O)Nc1ccc2c(=O)onc(C)c2c1` [1-N12, N-(4-methyl-1-oxo-1H-2,3-benzoxazin-6-yl)prop-2-enamide]: the viability at 48 h, 25 µM was found to be 1.1%.
In the case of `CCc1ccccc1NC(=O)CNC(=O)CCl` [4-I08, 2-chloro-N-{[(2-ethylphenyl)carbamoyl]methyl}acetamide], the viability at 48 h, 25 µM was 0.8%.
`O=C1C=CC(=O)N1c1ccc(OC(F)F)cc1` [10-P11, 1-[4-(difluoromethoxy)phenyl]-2,5-dihydro-1H-pyrrole-2,5-dione]: the viability at 48 h, 25 µM is 102%.
Under `C=CC(=O)N(Cc1c2c(nn1C)CCOC2)c1cc(C)cc(C)c1` [2-A07, N-(3,5-dimethylphenyl)-N-({2-methyl-2H,4H,6H,7H-pyrano[4,3-c]pyrazol-3-yl}methyl)prop-2-enamide] stands 57.4%.
In the case of `O=C(CCl)C1CC12CCOCC2` (stereo not drawn) [10-M15, 2-chloro-1-{6-oxaspiro[2.5]octan-1-yl}ethan-1-one], the viability at 48 h, 25 µM is 108%.
As to `CCCc1ccc(C(=O)CCl)cc1` [10-C04, 2-chloro-1-(4-propylphenyl)ethan-1-one], the viability at 48 h, 25 µM was found to be 54.6%.
As to `Cc1ccc(C=C(C#N)C(=O)N2CCCC2)cc1` [8-E17, 3-(4-methylphenyl)-2-(pyrrolidine-1-carbonyl)prop-2-enenitrile], the viability at 48 h, 25 µM was determined as 75.4%.
With `C=CC(=O)NCC1CCC2(CCCOC2)O1` (stereo not drawn) [2-O13, N-({1,7-dioxaspiro[4.5]decan-2-yl}methyl)prop-2-enamide], the viability at 48 h, 25 µM stood at 168%.
Consider `Cc1oc(C(=O)O)cc1C(=O)CCl` [10-M21, 4-(2-chloroacetyl)-5-methylfuran-2-carboxylic acid], for which the viability at 48 h, 25 µM is 91%.
With `CC(Cl)C(=O)N1CC(=O)Nc2ccccc21` (stereo not drawn) [6-E07, 4-(2-chloropropanoyl)-1,2,3,4-tetrahydroquinoxalin-2-one], the viability at 48 h, 25 µM was determined as 117%.
As to `O=C(CCl)N(Cc1ccccc1)CC(F)(F)F` [4-B20, N-benzyl-2-chloro-N-(2,2,2-trifluoroethyl)acetamide], the viability at 48 h, 25 µM came out at 1.12%.
Under `Cc1n[nH]c(C)c1C=C(C#N)C(=O)Nc1ccc(SC(F)F)cc1` [8-E08, 2-cyano-N-{4-[(difluoromethyl)sulfanyl]phenyl}-3-(3,5-dimethyl-1H-pyrazol-4-yl)prop-2-enamide] stands 78.2%; under `O=C(CCl)N(Cc1cnn(-c2ccccc2)c1)C1CC1` [6-L09, 2-chloro-N-cyclopropyl-N-[(1-phenyl-1H-pyrazol-4-yl)methyl]acetamide], 1.4%.
For `CC(C)N(Cc1ccccc1)C(=O)CCl` [5-J20, N-benzyl-2-chloro-N-(propan-2-yl)acetamide], the viability at 48 h, 25 µM came out at 1.21%.
As for `CC(Cl)C(=O)N1CCC(n2c(=O)[nH]c3ccccc32)CC1` (stereo not drawn) [6-N05, 1-[1-(2-chloropropanoyl)piperidin-4-yl]-2,3-dihydro-1H-1,3-benzodiazol-2-one], the figure is 109%.
For the molecule `N#CC(=Cc1cccc(-c2ccncc2)c1)C(=O)NCc1ccco1` [9-B06, 2-cyano-N-[(furan-2-yl)methyl]-3-[3-(pyridin-4-yl)phenyl]prop-2-enamide], the viability at 48 h, 25 µM is 68.2%.
For the molecule `N#CC(=Cc1ccc(O)c([N+](=O)[O-])c1)C(=O)NCc1ccccc1` [8-O05, N-benzyl-2-cyano-3-(4-hydroxy-3-nitrophenyl)prop-2-enamide], the viability at 48 h, 25 µM worked out at 98.7%.
Consider `C=CC(=O)NCc1ccc2oc(=O)n(C)c2c1` [2-L15, N-[(3-methyl-2-oxo-2,3-dihydro-1,3-benzoxazol-5-yl)methyl]prop-2-enamide], for which the viability at 48 h, 25 µM was 55%.
`N#Cc1cccc(NC2CCN(C(=O)CCl)C2)c1` (stereo not drawn) [5-I22, 3-{[1-(2-chloroacetyl)pyrrolidin-3-yl]amino}benzonitrile]: the viability at 48 h, 25 µM was 2.25%.
For `C=CC(=O)N(C[C@H]1CCCO1)C1CCC(CC)CC1` (stereo partly drawn) [1-D03, N-(4-ethylcyclohexyl)-N-{[(2R)-oxolan-2-yl]methyl}prop-2-enamide], the viability at 48 h, 25 µM was 94.6%.
Regarding `C=CC(=O)N1CCC(C(=O)NCc2nccn2-c2ccccc2)CC1` [3-B03, N-[(1-phenyl-1H-imidazol-2-yl)methyl]-1-(prop-2-enoyl)piperidine-4-carboxamide], the viability at 48 h, 25 µM was found to be 86.5%.
Under `C=CC(=O)Nc1cn(CC(F)(F)F)nc1C` [3-D06, N-[3-methyl-1-(2,2,2-trifluoroethyl)-1H-pyrazol-4-yl]prop-2-enamide] stands 55.3%; under `C=CC(=O)N1CCC(C(=O)N(C)C(C)c2sc(CC)nc2C)CC1` (stereo not drawn) [2-P04, N-[1-(2-ethyl-4-methyl-1,3-thiazol-5-yl)ethyl]-N-methyl-1-(prop-2-enoyl)piperidine-4-carboxamide], 95.1%; under `N#CC(=Cc1ccc(Cl)c(Cl)c1)C(=O)NCc1ccccc1` [8-B07, N-benzyl-2-cyano-3-(3,4-dichlorophenyl)prop-2-enamide], 105%.
As for `O=C1C=CC(=O)N1c1cccc([N+](=O)[O-])c1` [10-P15, 1-(3-nitrophenyl)-2,5-dihydro-1H-pyrrole-2,5-dione], the viability at 48 h, 25 µM was determined as 92.8%.
Under `O=C(CCl)c1ccc(C(F)(F)F)cc1` [10-B10, 2-chloro-1-[4-(trifluoromethyl)phenyl]ethan-1-one] stands 13.9%; under `C=CC(=O)Nc1ccc(C(=O)N2CCC(S(=O)(=O)NC)C2)cc1` (stereo not drawn) [3-O08, N-{4-[3-(methylsulfamoyl)pyrrolidine-1-carbonyl]phenyl}prop-2-enamide], 95.4%.
On to `CC(C1CC1)N(CC(F)(F)F)C(=O)CCl` (stereo not drawn) [5-P08, 2-chloro-N-(1-cyclopropylethyl)-N-(2,2,2-trifluoroethyl)acetamide], for which the viability at 48 h, 25 µM was found to be 90.7%.
On to `CN1C(=O)Cc2cc(C(=O)CCl)ccc21` [10-G07, 5-(2-chloroacetyl)-1-methyl-2,3-dihydro-1H-indol-2-one], for which the viability at 48 h, 25 µM turned out to be 46.1%.
`COc1ccc(NC(=O)C(C#N)=Cc2cccc(Cl)c2Cl)cc1` [8-N04, 2-cyano-3-(2,3-dichlorophenyl)-N-(4-methoxyphenyl)prop-2-enamide]: the viability at 48 h, 25 µM came to 74.8%.
Under `C=CC(=O)NCc1c(C)nc2ccccn12` [1-C08, N-({2-methylimidazo[1,2-a]pyridin-3-yl}methyl)prop-2-enamide] stands 82.8%; under `C=CC(=O)N(Cc1ccc(Cl)cc1Cl)CC1CCC(O)C1` (stereo not drawn) [1-B04, N-[(2,4-dichlorophenyl)methyl]-N-[(3-hydroxycyclopentyl)methyl]prop-2-enamide], 26.4%; under `C=CC(=O)Nc1c(OC)nc(Cl)nc1OC` [1-B14, N-(2-chloro-4,6-dimethoxypyrimidin-5-yl)prop-2-enamide], 60.2%.
As for `COCCNC(=O)C(C#N)=Cc1cccc2ccccc12` [8-L12, 2-cyano-N-(2-methoxyethyl)-3-(naphthalen-1-yl)prop-2-enamide], the figure is 91.8%.
Turning to `COc1cc(C=C(C#N)C(=O)NC(C)C)cc(OC)c1` [8-F15, 2-cyano-3-(3,5-dimethoxyphenyl)-N-(propan-2-yl)prop-2-enamide], the viability at 48 h, 25 µM worked out at 82.4%.
For `C=CC(=O)Nc1ccc(C(F)C(F)(F)F)cc1` (stereo not drawn) [1-O20, N-[4-(1,2,2,2-tetrafluoroethyl)phenyl]prop-2-enamide], the viability at 48 h, 25 µM was found to be 85.4%.
As for `Cc1cc(N(CCC#N)C(=O)CCl)ccc1Cl` [4-K15, 2-chloro-N-(4-chloro-3-methylphenyl)-N-(2-cyanoethyl)acetamide], the viability at 48 h, 25 µM stood at 0.75%.
As for `O=C(CCl)c1c(-c2ccccc2)[nH]c2ccccc12` [10-E05, 2-chloro-1-(2-phenyl-1H-indol-3-yl)ethan-1-one], the figure is 14.1%.
Take `Cn1ncc2ccc(CNC(=O)N3CCSSCC3)cc21` [10-A20, N-[(1-methyl-1H-indazol-6-yl)methyl]-1,2,5-dithiazepane-5-carboxamide]: the viability at 48 h, 25 µM is 93.8%.
For the molecule `CC(=O)NC1Cc2ccccc2N(C(=O)CCl)C1` (stereo not drawn) [5-M20, N-[1-(2-chloroacetyl)-1,2,3,4-tetrahydroquinolin-3-yl]acetamide], the viability at 48 h, 25 µM came to 1.81%.
With `N#CC(=Cc1ccc(N2CCCCC2)cc1)C(=O)NC1CC1` [8-O04, 2-cyano-N-cyclopropyl-3-[4-(piperidin-1-yl)phenyl]prop-2-enamide], the viability at 48 h, 25 µM was determined as 82.3%.

The values above are taken from paper PMC11995724, “Antibiotic target discovery by integrated phenotypic and activity-based profiling of electrophilic fragments” (Cell chemical biology, 2025).
